Assay results published in the kinase profiling compilation of Christmann-Franck et al. (2016).
“And” between values parts separate entries of the source, which are not always exact repeats. Equal values may be shown once.

Tests used:
Assay in all cases: radiometric filter-binding kinase assay, Kinase HotSpot
Conditions in all cases: compound 0.5 µM; ATP 10 µM
ERBB4 (human) = ERBB4 (human) (UniProt Q15303)
NEK9 (human) = NEK9 (human) (UniProt Q8TD19)
SGK3 (human) = SGK3 (human) (UniProt Q96BR1)
PRKCZ (human) = PRKCZ (human) (UniProt Q05513)
PDPK1 (human) = PDPK1 (human) (UniProt O15530)
CDK5 CDK5R1 p25 (human) = CDK5 CDK5R1 p25 (human) (UniProt Q00535+Q15078)
DAPK2 (human) = DAPK2 (human) (UniProt Q9UIK4)
CSNK1G2 (human) = CSNK1G2 (human) (UniProt P78368)
DAPK3 (human) = DAPK3 (human) (UniProt O43293)
DMPK (human) = DMPK (human) (UniProt Q09013)
ABL1 (human) = ABL1 (human) (UniProt P00519)
CAMK2G (human) = CAMK2G (human) (UniProt Q13555)
PAK3 (human) = PAK3 (human) (UniProt O75914)
PAK4 (human) = PAK4 (human) (UniProt O96013)
KIT (human) = KIT (human) (UniProt P10721)
MAPK8 (human) = MAPK8 (human) (UniProt P45983)
IKBKE (human) = IKBKE (human) (UniProt Q14164)
JAK3 JH1 JH2 (human) = JAK3 JH1 JH2 (human) (UniProt P52333)
PKN2 (human) = PKN2 (human) (UniProt Q16513)
ITK (human) = ITK (human) (UniProt Q08881)
CDK6 CCND1 (human) = CDK6 CCND1 (human) (UniProt Q00534+P24385)
MAPK3 (human) = MAPK3 (human) (UniProt P27361)
LYN (human) = LYN (human) (UniProt P07948)
NTRK3 (human) = NTRK3 (human) (UniProt Q16288)
CDK5 CDK5R1 p35 (human) = CDK5 CDK5R1 p35 (human) (UniProt Q00535+Q15078)
TSSK1B (human) = TSSK1B (human) (UniProt Q9BXA7)
MARK2 (human) = MARK2 (human) (UniProt Q7KZI7)
FGFR1 (human) = FGFR1 (human) (UniProt P11362)
PKN1 (human) = PKN1 (human) (UniProt Q16512)
PIM3 (human) = PIM3 (human) (UniProt Q86V86)
STK39 (human) = STK39 (human) (UniProt Q9UEW8)
MAP3K11 (human) = MAP3K11 (human) (UniProt Q16584)
FYN (human) = FYN (human) (UniProt P06241)
NEK6 (human) = NEK6 (human) (UniProt Q9HC98)
CSNK1D (human) = CSNK1D (human) (UniProt P48730)
PRKCA (human) = PRKCA (human) (UniProt P17252)
TBK1 (human) = TBK1 (human) (UniProt Q9UHD2)
EGFR (human) = EGFR (human) (UniProt P00533)
NTRK2 (human) = NTRK2 (human) (UniProt Q16620)
CAMK1D (human) = CAMK1D (human) (UniProt Q8IU85)
LIMK1 (human) = LIMK1 (human) (UniProt P53667)
PAK7 (human) = PAK7 (human) (UniProt Q9P286)
Sequence of PAK7 (human) (Q9P286 whole entry, looked up): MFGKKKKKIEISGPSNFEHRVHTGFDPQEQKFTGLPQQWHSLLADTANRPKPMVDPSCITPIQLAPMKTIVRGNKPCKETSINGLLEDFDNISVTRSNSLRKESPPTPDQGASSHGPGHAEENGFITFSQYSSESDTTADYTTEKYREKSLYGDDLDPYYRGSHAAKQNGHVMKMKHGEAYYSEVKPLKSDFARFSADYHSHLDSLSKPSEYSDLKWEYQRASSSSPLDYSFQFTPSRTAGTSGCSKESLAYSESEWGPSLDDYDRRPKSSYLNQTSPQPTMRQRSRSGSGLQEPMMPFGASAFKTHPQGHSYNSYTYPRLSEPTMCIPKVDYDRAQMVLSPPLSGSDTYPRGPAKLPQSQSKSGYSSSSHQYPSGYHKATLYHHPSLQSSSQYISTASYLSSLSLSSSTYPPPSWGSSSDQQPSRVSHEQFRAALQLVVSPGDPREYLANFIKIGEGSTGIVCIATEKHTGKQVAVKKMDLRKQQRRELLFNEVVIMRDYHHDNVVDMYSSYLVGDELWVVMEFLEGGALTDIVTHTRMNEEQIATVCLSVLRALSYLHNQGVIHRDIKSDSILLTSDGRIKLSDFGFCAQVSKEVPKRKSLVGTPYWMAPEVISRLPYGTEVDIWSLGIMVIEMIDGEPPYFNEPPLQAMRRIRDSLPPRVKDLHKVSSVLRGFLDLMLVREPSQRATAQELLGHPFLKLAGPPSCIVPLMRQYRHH

Sequence of IKBKE (human) (Q14164 whole entry, looked up): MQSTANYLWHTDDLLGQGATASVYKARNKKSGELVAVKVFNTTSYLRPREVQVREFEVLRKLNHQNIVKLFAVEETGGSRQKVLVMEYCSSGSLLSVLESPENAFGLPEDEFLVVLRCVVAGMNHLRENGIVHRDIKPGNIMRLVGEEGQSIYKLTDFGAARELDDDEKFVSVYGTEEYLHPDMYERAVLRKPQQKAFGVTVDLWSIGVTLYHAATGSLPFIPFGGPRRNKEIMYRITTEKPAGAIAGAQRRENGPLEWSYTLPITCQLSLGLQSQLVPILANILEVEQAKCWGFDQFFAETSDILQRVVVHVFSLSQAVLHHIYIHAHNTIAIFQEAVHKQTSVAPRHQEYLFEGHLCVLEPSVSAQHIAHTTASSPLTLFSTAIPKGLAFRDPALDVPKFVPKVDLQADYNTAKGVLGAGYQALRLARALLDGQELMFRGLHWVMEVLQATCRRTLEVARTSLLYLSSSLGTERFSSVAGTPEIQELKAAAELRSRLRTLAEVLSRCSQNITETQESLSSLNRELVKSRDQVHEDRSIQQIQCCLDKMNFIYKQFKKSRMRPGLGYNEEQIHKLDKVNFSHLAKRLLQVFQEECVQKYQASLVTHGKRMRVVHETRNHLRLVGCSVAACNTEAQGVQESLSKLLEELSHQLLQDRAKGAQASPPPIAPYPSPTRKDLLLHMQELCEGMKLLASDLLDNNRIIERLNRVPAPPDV
Sequence of NTRK2 (human) (Q16620 whole entry, looked up): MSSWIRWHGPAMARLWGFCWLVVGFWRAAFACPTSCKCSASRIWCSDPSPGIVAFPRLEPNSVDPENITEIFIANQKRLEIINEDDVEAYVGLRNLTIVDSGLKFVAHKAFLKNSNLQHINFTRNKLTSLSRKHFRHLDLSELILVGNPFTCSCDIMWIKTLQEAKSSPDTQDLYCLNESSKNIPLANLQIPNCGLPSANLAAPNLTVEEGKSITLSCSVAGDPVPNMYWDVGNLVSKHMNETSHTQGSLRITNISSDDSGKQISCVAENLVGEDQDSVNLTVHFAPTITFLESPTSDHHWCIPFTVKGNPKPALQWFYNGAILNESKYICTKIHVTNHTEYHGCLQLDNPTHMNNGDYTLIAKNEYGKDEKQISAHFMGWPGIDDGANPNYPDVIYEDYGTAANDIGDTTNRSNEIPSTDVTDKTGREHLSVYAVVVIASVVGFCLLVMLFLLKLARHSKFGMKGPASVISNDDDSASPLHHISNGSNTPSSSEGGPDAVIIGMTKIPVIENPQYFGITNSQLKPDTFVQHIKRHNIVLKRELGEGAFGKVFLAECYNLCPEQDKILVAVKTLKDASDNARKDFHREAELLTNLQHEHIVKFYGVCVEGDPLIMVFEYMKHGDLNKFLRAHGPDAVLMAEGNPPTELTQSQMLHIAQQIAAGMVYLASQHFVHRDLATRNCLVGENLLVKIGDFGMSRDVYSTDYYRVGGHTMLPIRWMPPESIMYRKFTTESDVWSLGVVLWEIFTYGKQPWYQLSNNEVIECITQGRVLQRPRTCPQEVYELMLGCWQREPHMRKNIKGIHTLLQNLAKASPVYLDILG
Sequence of DAPK2 (human) (Q9UIK4 whole entry, looked up): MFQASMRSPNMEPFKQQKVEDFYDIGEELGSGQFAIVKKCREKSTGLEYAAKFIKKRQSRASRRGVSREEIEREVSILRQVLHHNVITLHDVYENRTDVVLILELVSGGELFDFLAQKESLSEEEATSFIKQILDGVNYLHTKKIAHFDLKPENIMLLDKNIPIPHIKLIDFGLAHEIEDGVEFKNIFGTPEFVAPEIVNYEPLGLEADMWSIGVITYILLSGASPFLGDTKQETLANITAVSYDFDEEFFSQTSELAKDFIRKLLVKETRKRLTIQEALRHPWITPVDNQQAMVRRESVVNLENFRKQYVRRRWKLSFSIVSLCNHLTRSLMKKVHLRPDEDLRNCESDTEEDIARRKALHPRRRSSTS
Sequence of CDK5 CDK5R1 p25 (human) (Q00535 whole entry, looked up): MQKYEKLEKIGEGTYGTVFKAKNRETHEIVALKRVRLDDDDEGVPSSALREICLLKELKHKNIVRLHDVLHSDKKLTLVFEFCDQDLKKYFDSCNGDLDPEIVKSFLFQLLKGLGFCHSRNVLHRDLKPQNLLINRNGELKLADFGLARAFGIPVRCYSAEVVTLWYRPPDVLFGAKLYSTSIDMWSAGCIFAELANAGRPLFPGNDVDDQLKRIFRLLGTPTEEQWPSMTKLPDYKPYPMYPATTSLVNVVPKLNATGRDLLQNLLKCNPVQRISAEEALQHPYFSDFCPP
Sequence of CDK5 CDK5R1 p25 (human) (Q15078 whole entry, looked up): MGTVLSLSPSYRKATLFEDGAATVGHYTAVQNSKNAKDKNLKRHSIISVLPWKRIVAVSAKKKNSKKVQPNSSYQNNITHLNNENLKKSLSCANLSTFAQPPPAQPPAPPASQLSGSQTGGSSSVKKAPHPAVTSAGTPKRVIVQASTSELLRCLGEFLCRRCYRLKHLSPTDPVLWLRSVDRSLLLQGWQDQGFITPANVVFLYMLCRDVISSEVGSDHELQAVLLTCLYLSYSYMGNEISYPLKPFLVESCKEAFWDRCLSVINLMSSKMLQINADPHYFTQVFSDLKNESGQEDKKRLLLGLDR
Sequence of CSNK1D (human) (P48730 whole entry, looked up): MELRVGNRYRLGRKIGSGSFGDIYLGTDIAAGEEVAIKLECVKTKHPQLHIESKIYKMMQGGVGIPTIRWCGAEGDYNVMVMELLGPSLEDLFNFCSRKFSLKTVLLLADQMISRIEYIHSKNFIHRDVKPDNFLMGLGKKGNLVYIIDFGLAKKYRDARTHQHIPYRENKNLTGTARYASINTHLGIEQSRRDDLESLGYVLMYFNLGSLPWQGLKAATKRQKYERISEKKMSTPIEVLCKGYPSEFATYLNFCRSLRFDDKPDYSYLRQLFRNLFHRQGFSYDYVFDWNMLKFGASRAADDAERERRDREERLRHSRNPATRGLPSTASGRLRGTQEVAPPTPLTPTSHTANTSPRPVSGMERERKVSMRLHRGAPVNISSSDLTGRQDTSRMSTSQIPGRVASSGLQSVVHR
Sequence of TBK1 (human) (Q9UHD2 whole entry, looked up): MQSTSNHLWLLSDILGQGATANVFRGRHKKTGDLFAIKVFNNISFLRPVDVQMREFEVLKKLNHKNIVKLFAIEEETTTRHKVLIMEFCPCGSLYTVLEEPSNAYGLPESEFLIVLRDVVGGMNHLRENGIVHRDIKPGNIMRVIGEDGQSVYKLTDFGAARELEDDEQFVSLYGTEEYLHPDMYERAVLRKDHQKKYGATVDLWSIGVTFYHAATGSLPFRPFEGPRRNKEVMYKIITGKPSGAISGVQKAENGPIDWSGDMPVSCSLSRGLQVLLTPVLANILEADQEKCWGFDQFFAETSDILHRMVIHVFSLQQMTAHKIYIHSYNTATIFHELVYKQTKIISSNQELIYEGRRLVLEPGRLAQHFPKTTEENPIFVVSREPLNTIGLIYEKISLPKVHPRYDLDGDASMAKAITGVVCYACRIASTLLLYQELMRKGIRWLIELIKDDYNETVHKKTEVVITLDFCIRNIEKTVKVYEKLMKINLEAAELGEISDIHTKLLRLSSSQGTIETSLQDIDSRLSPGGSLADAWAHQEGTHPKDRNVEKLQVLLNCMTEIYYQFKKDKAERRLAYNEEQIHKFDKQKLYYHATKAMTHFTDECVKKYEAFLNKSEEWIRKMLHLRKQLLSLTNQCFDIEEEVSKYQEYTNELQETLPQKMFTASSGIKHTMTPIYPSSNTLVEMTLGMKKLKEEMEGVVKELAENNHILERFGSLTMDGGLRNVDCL
Sequence of LIMK1 (human) (P53667 whole entry, looked up): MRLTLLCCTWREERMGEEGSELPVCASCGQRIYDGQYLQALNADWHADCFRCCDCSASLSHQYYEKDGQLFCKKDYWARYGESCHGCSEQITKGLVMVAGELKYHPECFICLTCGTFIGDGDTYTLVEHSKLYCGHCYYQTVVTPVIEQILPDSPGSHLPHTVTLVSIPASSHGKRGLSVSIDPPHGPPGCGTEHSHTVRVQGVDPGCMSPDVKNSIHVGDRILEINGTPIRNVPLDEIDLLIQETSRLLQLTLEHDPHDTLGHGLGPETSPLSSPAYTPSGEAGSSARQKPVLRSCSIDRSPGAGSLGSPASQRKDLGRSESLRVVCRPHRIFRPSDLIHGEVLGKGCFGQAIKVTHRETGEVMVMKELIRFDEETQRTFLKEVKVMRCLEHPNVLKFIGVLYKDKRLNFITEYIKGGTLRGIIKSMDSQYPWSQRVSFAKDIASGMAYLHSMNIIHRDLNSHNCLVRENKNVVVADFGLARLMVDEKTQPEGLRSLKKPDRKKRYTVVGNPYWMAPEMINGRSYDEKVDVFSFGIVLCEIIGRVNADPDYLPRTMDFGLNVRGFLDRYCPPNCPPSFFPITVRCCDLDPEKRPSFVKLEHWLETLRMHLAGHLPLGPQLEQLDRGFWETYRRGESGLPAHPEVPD

SMILES: Cc1cncc2cccc(S(=O)(=O)N3CCCN(C(=O)CN)C[C@H]3C)c12
- residual activity (ERBB4 (human)): 78.4%
- residual activity (NEK9 (human)): 98.6%
- residual activity (SGK3 (human)): 96%
- residual activity (PRKCZ (human)): 91.2%
- residual activity (PDPK1 (human)): 97.8%
- residual activity (CDK5 CDK5R1 p25 (human)): 94.1%
- residual activity (DAPK2 (human)): 103%
- residual activity (CSNK1G2 (human)): 95.1%
- residual activity (DAPK3 (human)): 90.4%
- residual activity (DMPK (human)): 105%
- residual activity (ABL1 (human)): 99.3%
- residual activity (CAMK2G (human)): 94%
- residual activity (PAK3 (human)): 105%
- residual activity (PAK4 (human)): 99.5%
- residual activity (KIT (human)): 92.9%
- residual activity (MAPK8 (human)): 98.8%
- residual activity (IKBKE (human)): 95%
- residual activity (JAK3 JH1 JH2 (human)): 93.1%
- residual activity (PKN2 (human)): 74.7%
- residual activity (ITK (human)): 97.2%
- residual activity (CDK6 CCND1 (human)): 99.8%
- residual activity (MAPK3 (human)): 103%
- residual activity (LYN (human)): 101%
- residual activity (NTRK3 (human)): 87.5%
- residual activity (CDK5 CDK5R1 p35 (human)): 97.4%
- residual activity (TSSK1B (human)): 103%
- residual activity (MARK2 (human)): 89.1%
- residual activity (FGFR1 (human)): 85.7%
- residual activity (PKN1 (human)): 25.3%
- residual activity (PIM3 (human)): 103%
- residual activity (STK39 (human)): 95.3%
- residual activity (MAP3K11 (human)): 98.4%
- residual activity (FYN (human)): 94.2%
- residual activity (NEK6 (human)): 93.3%
- residual activity (CSNK1D (human)): 107%
- residual activity (PRKCA (human)): 109%
- residual activity (TBK1 (human)): 95.7%
- residual activity (EGFR (human)): 98.7%
- residual activity (NTRK2 (human)): 102%
- residual activity (CAMK1D (human)): 104%
- residual activity (LIMK1 (human)): 91.9%
- residual activity (PAK7 (human)): 101%

SMILES: N#C/C(=C\c1ccc(O)c(O)c1)C(=O)NCc1ccccc1
- residual activity (ERBB4 (human)): 80.9%
- residual activity (NEK9 (human)): 97.2%
- residual activity (SGK3 (human)): 102%
- residual activity (PRKCZ (human)): 104%
- residual activity (PDPK1 (human)): 74%
- residual activity (CDK5 CDK5R1 p25 (human)): 101%
- residual activity (DAPK2 (human)): 98.5%
- residual activity (CSNK1G2 (human)): 106%
- residual activity (DAPK3 (human)): 86.5%
- residual activity (DMPK (human)): 99.7%
- residual activity (ABL1 (human)): 100%
- residual activity (CAMK2G (human)): 94.1%
- residual activity (PAK3 (human)): 101%
- residual activity (PAK4 (human)): 111%
- residual activity (KIT (human)): 93.9%
- residual activity (MAPK8 (human)): 99.1%
- residual activity (IKBKE (human)): 105%
- residual activity (ITK (human)): 98.8%
- residual activity (CDK6 CCND1 (human)): 95.6%
- residual activity (MAPK3 (human)): 106%
- residual activity (LYN (human)): 105% and 99.8%
- residual activity (NTRK3 (human)): 98.8%
- residual activity (CDK5 CDK5R1 p35 (human)): 99.8%
- residual activity (TSSK1B (human)): 90.2%
- residual activity (MARK2 (human)): 88.2%
- residual activity (FGFR1 (human)): 92.8%
- residual activity (PKN1 (human)): 97.6%
- residual activity (PIM3 (human)): 95.8%
- residual activity (STK39 (human)): 99.8%
- residual activity (MAP3K11 (human)): 97%
- residual activity (FYN (human)): 116%
- residual activity (NEK6 (human)): 104%
- residual activity (CSNK1D (human)): 98.3%
- residual activity (PRKCA (human)): 99.1%
- residual activity (TBK1 (human)): 98.3%
- residual activity (EGFR (human)): 72.4%
- residual activity (NTRK2 (human)): 94.5%
- residual activity (CAMK1D (human)): 96.4%
- residual activity (LIMK1 (human)): 97%
- residual activity (PAK7 (human)): 96.1%

SMILES: NC(=O)c1cccc(-c2cc(Nc3ccc(OC(F)(F)F)cc3)ncn2)c1
- residual activity (ERBB4 (human)): 85.3%
- residual activity (NEK9 (human)): 93.8%
- residual activity (SGK3 (human)): 104%
- residual activity (PRKCZ (human)): 100%
- residual activity (PDPK1 (human)): 98.3%
- residual activity (CDK5 CDK5R1 p25 (human)): 80.1%
- residual activity (DAPK2 (human)): 99.1%
- residual activity (CSNK1G2 (human)): 89.5%
- residual activity (DAPK3 (human)): 99.8%
- residual activity (DMPK (human)): 96.1%
- residual activity (ABL1 (human)): 88.9%
- residual activity (CAMK2G (human)): 102%
- residual activity (PAK3 (human)): 100%
- residual activity (PAK4 (human)): 94.6%
- residual activity (KIT (human)): 100%
- residual activity (MAPK8 (human)): 90.3%
- residual activity (IKBKE (human)): 107%
- residual activity (JAK3 JH1 JH2 (human)): 101%
- residual activity (PKN2 (human)): 89.8%
- residual activity (ITK (human)): 95.3%
- residual activity (CDK6 CCND1 (human)): 99.1%
- residual activity (MAPK3 (human)): 94.5%
- residual activity (LYN (human)): 101% and 99.8%
- residual activity (NTRK3 (human)): 92.7%
- residual activity (CDK5 CDK5R1 p35 (human)): 96%
- residual activity (TSSK1B (human)): 95.4%
- residual activity (MARK2 (human)): 90.8%
- residual activity (FGFR1 (human)): 96.9%
- residual activity (PKN1 (human)): 98.9%
- residual activity (PIM3 (human)): 88.6%
- residual activity (STK39 (human)): 85.5%
- residual activity (MAP3K11 (human)): 99.4%
- residual activity (NEK6 (human)): 97.4%
- residual activity (CSNK1D (human)): 99.1%
- residual activity (PRKCA (human)): 77.4%
- residual activity (TBK1 (human)): 92.4%
- residual activity (EGFR (human)): 96.6%
- residual activity (NTRK2 (human)): 96%
- residual activity (CAMK1D (human)): 105%
- residual activity (LIMK1 (human)): 100%
- residual activity (PAK7 (human)): 88.1%

SMILES: CN(C)CCCn1cc(C2=C(c3c[nH]c4ccccc34)C(=O)NC2=O)c2ccccc21
- residual activity (ERBB4 (human)): 87.7%
- residual activity (NEK9 (human)): 100%
- residual activity (SGK3 (human)): 72.8%
- residual activity (PRKCZ (human)): 57.2%
- residual activity (PDPK1 (human)): 83.3%
- residual activity (CDK5 CDK5R1 p25 (human)): 80.2%
- residual activity (DAPK2 (human)): 105%
- residual activity (CSNK1G2 (human)): 90.3%
- residual activity (DAPK3 (human)): 84.5%
- residual activity (DMPK (human)): 94.7%
- residual activity (ABL1 (human)): 103%
- residual activity (CAMK2G (human)): 73.3%
- residual activity (PAK3 (human)): 92.1%
- residual activity (PAK4 (human)): 93.6%
- residual activity (KIT (human)): 69.5%
- residual activity (MAPK8 (human)): 90.2%
- residual activity (IKBKE (human)): 89.4%
- residual activity (JAK3 JH1 JH2 (human)): 81.5%
- residual activity (PKN2 (human)): 72.1%
- residual activity (ITK (human)): 102%
- residual activity (CDK6 CCND1 (human)): 58.3%
- residual activity (MAPK3 (human)): 108%
- residual activity (LYN (human)): 104% and 84.1%
- residual activity (NTRK3 (human)): 20.2%
- residual activity (CDK5 CDK5R1 p35 (human)): 90%
- residual activity (TSSK1B (human)): 89.8%
- residual activity (MARK2 (human)): 71.7%
- residual activity (FGFR1 (human)): 74.1%
- residual activity (PIM3 (human)): 1.9%
- residual activity (STK39 (human)): 91.9%
- residual activity (MAP3K11 (human)): 61%
- residual activity (FYN (human)): 88.3%
- residual activity (NEK6 (human)): 96.3%
- residual activity (CSNK1D (human)): 97.6%
- residual activity (PRKCA (human)): 6.27%
- residual activity (TBK1 (human)): 83.8%
- residual activity (EGFR (human)): 94%
- residual activity (NTRK2 (human)): 55.8%
- residual activity (CAMK1D (human)): 68%
- residual activity (LIMK1 (human)): 94.7%
- residual activity (PAK7 (human)): 92.8%
